Test results reported in US20110189243A1, “PHARMACEUTICAL FORMULATION FOR LOWERING PULMONARY BLOOD PRESSURE” (Ratiopharm GMBH, priority 2008, published 2011).

Assay: Particle size by laser diffractometry (Malvern Mastersizer 2000)
Type: physicochemical
Conditions: after milling 30 minutes at 350 rpm in a Retsch ball mill
Procedure: The expression “average particle diameter” relates in the context of this invention to the D50 value of the volume-average particle diameter determined by means of laser diffractometry. In particular, a Malvern Instruments Mastersizer 2000 was used to determine the diameter (wet measurement, 2,000 rpm, ultrasound 60 sec., preferably shading 4 to 13%, preferably dispersion in liquid paraffin, the evaluation using the Fraunhofer method). The average particle diameter, which is also referred to as the D50 value of the integral volume distribution, is defined in the context of this invention as the particle diameter at which 50% by volume of the particles have a smaller diameter than the diameter which corresponds to the D50 value. Similarly, 50% by volume of the particles than have a larger diameter than the D50 value. Analogously, the D10 value of the integral volume distribution is defined as the particle diameter at which 10% by volume of the particles have a smaller diameter than the diameter which corresponds to the D10 value. Accordingly, the D90 value of the integral volume distribution is defined as the particle diameter at which 90% by volume of the particles have a smaller diameter than the diameter which corresponds to the D90 value.

particle size d10: 5 μm
particle size d50: 18 μm
particle size d90: 63 μm
Compound: COC(c1ccccc1)(c1ccccc1)[C@H](Oc1nc(C)cc(C)n1)C(=O)O [Example 3, (2S)-2-(4,6-dimethylpyrimidin-2-yl)oxy-3-methoxy-3,3-di(phenyl)propanoic acid]
